Here are results for five molecules from patent US20220265700A1, “METHODS TO PREVENT, INHIBIT OR TREAT INTERVERTEBRAL DISC DEGENERATION” (University of Iowa Research Foundation, priority 2021, published 2022).

Structures are written as SMILES. Read-outs that look alike come from different tables or passages of the source.

The subject of series [1] is nucleus pulposus cells. In words: Mitochondrial membrane potential, JC-1 assay. In kind it is cell-based, rabbit. To be noted: 50 μM tBHP 1 h.
The subject of series [2] is nucleus pulposus cells. The settings on record: for cell viability: normalized by control.
Series [3] deals with ERK. In words: Immunofluorescence staining of phosphorylated ERK. In kind it is cell-based, rabbit.
Series [4] concerns rabbit NP cells. In kind it is cell-based. To be noted: exposed to 100 μM tBHP.
Series [5] concerns human nucleus pulposus cells. To be noted: 400 μM tBHP for 6 h (Xu et al. 2019); cited from earlier work.
The test system of series [6] is nucleus pulposus cells. The settings on record: 100 μM tBHP exposure.
The test system of series [7] is JNK. The experiment in a line: Immunofluorescence staining of phosphorylated JNK. In kind it is cell-based, rabbit.
Series [8] relates to p38. The experiment in a line: Immunofluorescence staining of phosphorylated p38. In kind it is cell-based, rabbit.
Series [9] relates to rat nucleus pulposus cells. The settings on record: 100 μM tBHP for 24 h (2019 report); cited from earlier work.
Series [10] concerns nucleus pulposus cells. In words: Mitochondrial ROS production, MitoSOX Red. In kind it is cell-based, rabbit.
Series [11] deals with NP cells. The experiment in a line: TUNEL assay, ex vivo IVD puncture model. In kind it is cell-based, rabbit. The settings on record: 7 days; Amo in hydrogel after disc puncture. The text has this:
Overall study design is illustrated in FIG. 15A. A total of 36 rabbit thoracic and lumbar motion segments (T11/L2) including two vertebral bodies and one IVD were obtained from New Zealand White (NZW) rabbit cadavers (approximately 10-months old) without radiographic evidence of trauma by X-ray. Under sterile conditions, the segments were dissected by removing the posterior elements and soft tissues. The discs were punctured using a 20-gauge needle with 3 mm-depth, and the needle was held in place for 5 seconds. Discal injury was confirmed by herniated nucleus pulposus (NP) through the needle hole. After the puncture, 5 μl hydrogel (17% F-127/0.425% HA) with or without 2.5 mM Amo was injected into the NP using a 30-gauge Hamilton syringe with a stopper (Thermo Fisher Scientific, Waltham, Mass., USA). […]
Apoptotic cells in the NP were detected using a terminal deoxynucleotidyl transferase dUTP nick end labelling (TUNEL) assay (Abcam, Cambridge, Mass., USA) according to the manufacturer's instructions. […] Then, the sections were labeled with terminal transferase (TdT) enzyme for 1.5 h, detected with blocking buffer for 30 min, developed with working 3,3′-diaminobenzidine (DAB) solution for 15 min, and counterstained with methyl green for 1.5 min. After scanning images, the number of positive cells in each tissue was counted and normalized by the data from the 2-days intact group.

Series [12] can be described thus: Amo stability in HA hydrogel according to USP guidelines. In kind it is physicochemical. To be noted: mixed with Gel-One HA hydrogel, data not shown. The text has this:
Amo is primarily applied as a sedative-hypnotic to treat sleep disorder and as a preanesthetic agent.

The subject of series [13] is Nrf2. The experiment in a line: Nrf2 staining, ex vivo organ culture of transversely cut intervertebral discs. In kind it is cell-based, rabbit. To be noted: 10 mM NAC or […] amobarbital for 24 h after cutting.
In series [14] the test system is Nrf2. The experiment in a line: Nrf2 staining in NP cells under tBHP-induced oxidative stress. The settings on record: pre-treated with […] amobarbital 2 h, then 50 μM tBHP 1 h.
Series [15] has as its system nucleus pulposus (NP). In words: DHE staining of IVDs exposed to 100 μM tBHP. In kind it is cell-based, rabbit. The settings on record: 100 μM tBHP 30 minutes, then 10 mM NAC 24 hours.
Series [16] has as its system nucleus pulposus tissues. The experiment in a line: DHE staining, ex vivo organ culture of transversely cut intervertebral discs. In kind it is cell-based, rabbit. To be noted: 10 mM NAC or […] amobarbital for 24 h after cutting.
Series [17] has as its system SOD2 and Nrf2. The experiment in a line: SOD2 and Nrf2 IHC staining of tBHP-exposed IVDs. In kind it is cell-based, rabbit. To be noted: 100 μM tBHP 30 minutes, then 10 mM NAC 24 hours.
The mark [18] stands for this setting: 10 mM NAC, […] amobarbital or 20 μM inhibitor, 50 μM tBHP 1 h.

With `CC(C)(C)OO` [tBHP, tert-butyl hydrogen peroxide], the “ratio of J-aggregate form to monomeric form vs. control” value in series [1] is “significantly reduced”. Moreover, the cell viability – broadly, a read-out of living cells in per cent, often relative to untreated cells – in series [2] (25 μM tBHP, 1 h) is on record as 90.8%; in series [2] (50 μM tBHP, 1 h), 77.1%. Further, in series [2] (100-400 μM tBHP, 1 h), the “cell loss (viability)” value was 70.6-72.9%. Also, the “phosphorylation of ERK vs. control” value in [3] (50 μM tBHP 1 h) is recorded as “significantly phosphorylated”. Also, the “basal oxygen consumption rate (OCR)” value in series [4] is given as “increased”. The viability – broadly, a read-out of living cells in per cent, often relative to untreated cells – in [5] is given as 54.3%. For the same molecule, the “apoptotic/necrotic cells after tBHP exposure” value in series [6] is recorded as “became apoptotic and/or necrotic cells”. Further, the “rate of phosphorylated JNK compared with control” value in series [7] (50 μM tBHP 1 h) is “approximately 5.9 times”. For the same molecule, the “rate of phosphorylated p38 compared with control” value in series [8] (50 μM tBHP 1 h) is given as roughly 9.7 times. The “cell apoptosis relative to control” value in [9] was “approximately 7 times”. The “superoxide production (MitoSOX Red)” value in [10] (25 μM tBHP) is listed as “no superoxide production was observed”.

Regarding `C[S+]([O-])c1ccc(-c2nc(-c3ccncc3)c(-c3ccc(F)cc3)[nH]2)cc1` (stereo not shown) [SB203580], the “phosphorylation of JNK vs. tBHP” value in [7] is listed as “minimized the phosphorylation”.

In the case of `COc1cccc(-c2cc(=O)c3ccccc3o2)c1N` [PD98059], in series [3], the “phosphorylation of ERK vs. tBHP” value is on record as “minimized the phosphorylation”.

As for `CCC1(CCC(C)C)C(=O)NC(=O)NC1=O` [amobarbital], the “protective effect on cell viability (cell death)” value in series [2] was “significantly prohibited the cell death”. Also, the “phosphorylation of ERK vs. tBHP” value in [3] is on record as “inhibited the phosphorylation”. For the same molecule, the “phosphorylation of JNK vs. tBHP” value in series [7] was “inhibited the phosphorylation”. The “TUNEL-positive (apoptotic) NP cells vs. HG” value in series [11] is on record as “diminished number of cell apoptosis”. Besides, in series [12], the “Amo stability in hydrogel” value is “stability in human biologic fluids and various conditions”. For the same molecule, the “phosphorylation of p38 vs. tBHP” value in series [8] is given as “inhibited the phosphorylation”. Besides, in series [13], the “Nrf2 expression in the cytosol compared with injured control group” value is reported as roughly 7.8 times and the “Nrf2 translocation to the nucleus after injury” value was “prevented”. For the same molecule, the “Nrf2 expression in the cytosol of NP cells” value in series [14] is “close to control”. Also, the “MitoSOX-stained cells (imaging)” value in series [10] is “large decrease”.

In the case of `CC(=O)N[C@@H](CS)C(=O)O` [NAC, N-acetylcysteine], in series [15], the “DHE positive cells compared with non-treated control” value is “dramatic reduction”. The “protective effect on cell viability (cell death)” value in [2] (0.1-10 mM pre-treatment 2 h prior to 50 μM tBHP, until 24 h) is reported as “significantly prohibited the cell death”. The “concentration at which no cytotoxicity was exhibited” value in series [2] (New Zealand White, rabbit, 2 h) is “lower than 10 mM”. The “DHE dye oxidation (ROS) in injured NP tissues” value in [16] is given as “dramatically reduced dye oxidation”. Further, the “phosphorylation of ERK vs. tBHP” value in series [3] (setting [18]) is given as “inhibited the phosphorylation”. In addition, the “phosphorylation of JNK vs. tBHP” value in series [7] (setting [18]) is listed as “inhibited the phosphorylation”. Besides, in [17], the “oxidative damage in NP cells by SOD2 and Nrf2 IHC staining” value was “reduced oxidative damage”. The “phosphorylation of p38 vs. tBHP” value in series [8] (setting [18]) is listed as “inhibited the phosphorylation”. Further, in series [13], the “Nrf2 expression in the cytosol compared with injured control group” value is “approximately 6.8 times” and the “Nrf2 translocation to the nucleus after injury” value is recorded as “prevented”.
